Reference: patent US7622475B2, “EP2 agonists” (Pfizer Inc, priority 2006, dated 2009)

What was measured:
[1] = test system: other murine EP receptors or DP, TP, FP or IP receptors; conditions: cited from earlier work
[2] = molecular target: EP2 (Homo sapiens, UniProt P43116); design: expressed in transfected cells; host or cells: COS cells; conditions: COS cells transfected with the human EP2 receptor; read-out: EC50 for the stimulation of cAMP; cited from earlier work
[3] = test system: ocular hypertensive non-human primates; assay: IOP change after topical application in ocular hypertensive non-human primates; format: in vivo; conditions: for Tmax: time point of maximum IOP reduction
Description: Tables 2 and 3 describe the intraocular pressure (IOP) changes that were seen following topical application of EP2 agonists in ocular hypertensive non-human primates. Typically, compounds in suitable formulations were dosed topically and IOP was measured using tonometry. Changes in IOP between vehicle treatment followed by treatment with EP2 compounds were assessed over time in the dosed hypertensive eye. ΔΔ Emax reflects the difference in IOP from EP2 compound-treated eye over that seen for vehicle-treated eye at the timepoint wherein maximum IOP reduction for compound was seen. The percent ΔΔ Emax was the percentage change in IOP reduction conferred by compound over that for vehicle (set at 100%). Tmax represents the time point at which maximum IOP reduction of compound was observed. […] NS represents not significant. Table 2 compares acids of EP2 compound while Table 3 compares IOP response seen with esters of certain acids. Esters provide better corneal penetration and improved drug exposure in the anterior chamber compared to acids and are therefore dosed at ⅕th the dose for acids […].

[4] = molecular target: recombinant murine EP2 receptor (Mus musculus, UniProt Q62053); conditions: fraction of the affinity of PGE2; cited from earlier work
Sequence of recombinant murine EP2 receptor (Q62053 whole entry): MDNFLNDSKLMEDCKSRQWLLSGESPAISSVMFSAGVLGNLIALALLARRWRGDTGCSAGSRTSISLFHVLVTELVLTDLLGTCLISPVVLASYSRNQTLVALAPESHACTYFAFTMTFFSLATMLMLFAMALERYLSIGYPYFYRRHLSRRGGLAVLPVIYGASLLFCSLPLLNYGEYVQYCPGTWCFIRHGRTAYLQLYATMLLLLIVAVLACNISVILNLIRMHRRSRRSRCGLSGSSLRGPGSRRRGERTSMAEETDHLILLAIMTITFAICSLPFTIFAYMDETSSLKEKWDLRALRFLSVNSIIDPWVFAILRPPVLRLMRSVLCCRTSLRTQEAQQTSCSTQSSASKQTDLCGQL

[5] = test system: newborn piglets; conditions: brief hypoxia, in the presence of PG synthase inhibitors; cited from earlier work
[6] = test system: ciliary muscle; conditions: topical ocular QD for 1 year; treated and contralateral eyes; cited from earlier work
[7] = test system: murine astrocyte cultures; conditions: cited from earlier work
[8] = test system: ocular hypertensive non-human primates; assay: IOP change after topical application in ocular hypertensive non-human primates; format: in vivo; conditions: isopropylesters, OHT primates, NT eye

Sequence of EP2 (P43116 whole entry): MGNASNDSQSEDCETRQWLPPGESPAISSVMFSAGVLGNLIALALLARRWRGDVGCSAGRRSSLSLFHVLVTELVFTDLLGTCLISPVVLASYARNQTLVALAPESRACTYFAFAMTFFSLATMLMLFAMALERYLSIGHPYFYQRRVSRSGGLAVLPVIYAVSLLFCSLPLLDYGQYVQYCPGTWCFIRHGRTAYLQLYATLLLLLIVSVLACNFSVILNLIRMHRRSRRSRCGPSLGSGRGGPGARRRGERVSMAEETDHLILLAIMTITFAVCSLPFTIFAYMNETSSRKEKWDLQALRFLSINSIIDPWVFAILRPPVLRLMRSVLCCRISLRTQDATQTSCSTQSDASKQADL

Structure (SMILES): CCCC1([C@H](O)C/C=C/[C@H]2[C@H](O)CC(=O)[C@@H]2CCCCCCC(=O)OC)CCC1 (racemic) [Butaprost, (+/−)-15-Deoxy-16S-hydroxy-17-cyclobutyl PGE1]
- binding to other prostanoid receptors [1]: does not bind appreciably
- EC50 [2]: ~5 µM
- change in vivo at 0.1 % ([3]; Primates, topical, acid EP2 agonists, Conc 0.1 %, topical, vs vehicle (set at 100%), read-out: ΔΔEmax (%)): -18%
- ΔΔEmax (mm Hg) ([3]; acid EP2 agonists, Conc 0.1 %, topical, dosed hypertensive eye vs vehicle): −5.5 mm Hg
- Tmax ([3]; acid EP2 agonists, Conc 0.1 %): 5 h
- affinity relative to PGE2 [4]: about 1/10
- electrophysiological changes (VEPs and ERGs) [5]: restoration of electrophysiological changes

Structure (SMILES): CCCCCC(O)c1ccc(C2CCC(=O)C2CCCCCCC(=O)O)cc1 (stereo not drawn) [AH-13205]
- number of nerve bundles in ciliary muscle [6]: doubling in the number of nerve bundles in ciliary muscle

Structure (SMILES): CCCCC[C@H](O)/C=C/[C@H]1[C@H](O)CC(=O)[C@@H]1C/C=C\CCCC(=O)O [PGE2, prostaglandin E2]
- synthesis and secretion of BDNF and NGF [7]: stimulate synthesis and secretion of brain-derived neurotrophic factor (BDNF) and nerve growth factor (NGF)

Structure (SMILES): CC(C)OC(=O)COc1cccc(CN(Cc2ccc(-n3cccn3)cc2)S(=O)(=O)c2cccnc2)c1 [drawing 61]
- ΔΔEmax (mmHg) ([3]; isopropylesters, OHT primates, OHT eye, 0.1 mg/ml topical): −14 mmHg
- Tmax ([3]; isopropylesters, OHT primates): 6 h
- ΔΔEmax (mmHg) [8]: −7.5 mmHg
